Results as given in ChEMBL document CHEMBL1201862, “PubChem BioAssay data set” (2004).
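A five-concentration, 48-hour dose response in 96-well plates underlies each endpoint, interpolated linearly between surrounding concentrations. GI50: concentration for 50% inhibition of growth.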 The source made the active and inactive calls. No stated cut-off is given here; in the data, active = GI50 up to about 1.1 µM and inactive = higher.

How the values were obtained:
Assay in all cases: NCI tumour cell line growth inhibition, 48 h
RXF 631 = test system: RXF 631
DLD-1 = test system: DLD-1
DMS-114 = test system: DMS-114
KM-20L2 = test system: KM-20L2
XF498 = test system: XF498
LXFL 529 = test system: LXFL 529
M19-MEL = test system: M19-MEL
BT-549 = test system: BT-549
HOP-18 = test system: HOP-18

| SMILES | GI50 (RXF 631) | GI50 (DLD-1) | GI50 (DMS-114) | GI50 (KM-20L2) | GI50 (XF498) | GI50 (LXFL 529) | GI50 (M19-MEL) | GI50 (BT-549) | GI50 (HOP-18) |
| --- | --- | --- | --- | --- | --- | --- | --- | --- | --- |
| Cc1cc(C)c(C(=O)O)c(SSc2cc(C)cc(C)c2C(=O)O)c1 | > 100 µM (inactive) | > 100 µM (inactive) | > 100 µM (inactive) | > 100 µM (inactive) | > 100 µM (inactive) | > 100 µM (inactive) | > 100 µM (inactive) |  |  |
| COc1ccc2c(Cl)cc(NC(=S)Nc3ccccc3)nc2c1 |  |  |  |  |  |  |  | 39 µM (inactive) |  |
| N#CC1=C(N)N(c2ccccc2)C(c2ccccc2)C1(C#N)C#N (centres undefined) |  |  |  |  |  |  |  | 16.7 µM (inactive) |  |
| CC(NC(=O)c1ccccc1)(C(=O)O)C(=O)O |  |  |  |  |  |  |  | > 100 µM (inactive) |  |
| CN1CCN(c2ccc([N+](=O)[O-])c3no[n+]([O-])c23)CC1 |  |  |  |  |  |  |  | 1.09 µM (active) |  |
| COc1ccc(C2c3cc4c(cc3OC(N3CCOCC3)C2C)OCO4)c(OC)c1 (centres undefined) |  |  |  |  |  |  |  | 3.23 µM (inactive) |  |
| CC(=O)OC(C)C1C2=C(C(=O)CC1(C)O)C(=O)c1c(ccc(-c3ccc4c(c3O)C(=O)C3=C(C4=O)C(C(C)OC(C)=O)C(C)(O)CC3=O)c1O)C2=O (centres undefined) |  | 1.11 µM (active) | 0.286 µM (active) | 2.04 µM (inactive) |  | 0.428 µM (active) | 1.36 µM (inactive) | 1.28 µM (inactive) | 0.457 µM (active) |
| CCOC(=O)c1cc2c(=Cc3ccc(N(C)C)cc3)c3ccccc3n2[n+]1C |  |  |  |  |  |  |  | 0.577 µM (active) |  |
| O=C(O)Cc1cccnc1 |  |  |  |  |  |  |  | > 100 µM (inactive) |  |
| O=Cc1[nH]c(=O)[nH]c(=O)c1CCl |  |  |  |  |  |  |  | > 100 µM (inactive) |  |
| CCN1c2ccccc2C(C(SC)S(=O)(=O)c2ccc(C)cc2)c2c1[nH]c(=O)n(C)c2=O (centres undefined) |  | > 100 µM (inactive) | > 100 µM (inactive) |  | > 100 µM (inactive) | > 100 µM (inactive) | > 100 µM (inactive) |  | 22.9 µM (inactive) |
| CC1C(O)Oc2cc3c(cc2C1c1ccccc1O)OCO3 (centres undefined) |  |  |  |  |  |  |  | 34.9 µM (inactive) |  |
| O=C(CC1S/C(=N\c2ccccc2Cl)NC1=O)Nc1ccc(Cl)cc1 (centres undefined) |  | > 100 µM (inactive) | > 100 µM (inactive) | > 100 µM (inactive) |  | > 100 µM (inactive) | > 100 µM (inactive) |  |  |
| COC(=O)C1CC(=O)CCC1c1ccccc1 (centres undefined) |  | > 100 µM (inactive) | > 100 µM (inactive) | > 100 µM (inactive) |  | > 100 µM (inactive) | > 100 µM (inactive) |  | > 100 µM (inactive) |
| CC(=O)c1ccc2c(c1)CC1(C2)Cc2ccc3c(c2C1=O)CCC3 (centres undefined) |  |  |  |  |  |  |  | 27.9 µM (inactive) |  |
| CSc1nc(SC)c2c(C#N)n[nH]c2n1 | > 100 µM (inactive) | > 100 µM (inactive) | > 100 µM (inactive) | > 100 µM (inactive) | > 100 µM (inactive) |  | > 100 µM (inactive) |  |  |
| Clc1cc(Cl)c2ns[s+]c2c1Cl |  | > 100 µM (inactive) |  | > 100 µM (inactive) | > 100 µM (inactive) | > 100 µM (inactive) | > 100 µM (inactive) |  | 78.3 µM (inactive) |
| CN(C)CCS/C(=N\c1ccccc1)n1cccc1 |  | > 100 µM (inactive) | 26.3 µM (inactive) | 32.1 µM (inactive) | > 100 µM (inactive) | 42.7 µM (inactive) | 83.9 µM (inactive) |  | > 100 µM (inactive) |
| CC(C)OC(=O)[C@@H]1OC(C)(C)O[C@H]1C(=O)OC(C)C |  |  |  |  |  |  |  | > 100 µM (inactive) |  |
| CC1(OCc2ccccc2)C(=O)N2C1NCC2(C)C (centres undefined) | > 100 µM (inactive) | > 100 µM (inactive) | > 100 µM (inactive) | > 100 µM (inactive) | > 100 µM (inactive) | > 100 µM (inactive) | > 100 µM (inactive) |  |  |
| COc1cc(/C=C2\C(=O)N(c3ccc(NC(C)=O)cc3)C(c3ccccc3)S2(=O)=O)cc(OC)c1OC (centres undefined) |  |  |  |  |  |  |  | > 100 µM (inactive) |  |
| Cc1c(-c2cc(-c3ccccc3)n[nH]c2=O)c2ccccc2n1C |  | > 100 µM (inactive) | > 100 µM (inactive) | > 100 µM (inactive) | > 100 µM (inactive) | > 100 µM (inactive) | > 100 µM (inactive) |  | 71.3 µM (inactive) |
| Cc1nc2ccccc2c(=O)n1NC(=O)Cc1ccccc1 |  |  |  |  |  |  |  | > 100 µM (inactive) |  |
| CCCCC(CCCC)=NNC(=S)SC |  |  |  |  |  |  |  | 42 µM (inactive) |  |
| CC1(C)CCC(=O)NC1CC(=O)CC1NC(=O)CCC1(C)C (centres undefined) |  |  |  |  |  |  |  | > 100 µM (inactive) |  |
| N#CCCN(CCC#N)c1ccc(C(/N=N/c2ccccc2)=N\c2ccccc2)cc1 |  |  |  |  |  |  |  | 13 µM (inactive) |  |
| O=C(CC(=O)C(=O)Nc1ccccc1)CC(c1ccccc1)c1c(O)c2ccccc2oc1=O (centres undefined) | > 100 µM (inactive) | > 100 µM (inactive) | > 100 µM (inactive) | > 100 µM (inactive) |  |  | > 100 µM (inactive) |  | > 100 µM (inactive) |
| COc1ccc2[nH]c3c(C)c4ncccc4c(C)c3c2c1 |  |  |  |  |  |  |  | > 10 µM (inactive) |  |
